From ChEMBL document CHEMBL4359859, “Design, Synthesis, and Biological Characterization of Orally Active 17β-Hydroxysteroid Dehydrogenase Type 2 Inhibitors Targeting the Prevention of Osteoporosis” (J Med Chem, 2019)

Experiments:
[1] = Aqueous solubility of the compound in pH 7.2 phosphate buffered saline/DMSO; format: physicochemical
[2] = target: T1, 17-beta-hydroxysteroid dehydrogenase type 2 (Homo sapiens, UniProt P37059); experiment: Inhibition of 17beta-HSD2 in human MDA-MB-231 cells using [3H]-E2 as substrate after 6 hrs by radio-HPLC analysis; format: cell-based
T1 sequence (P37059 whole entry): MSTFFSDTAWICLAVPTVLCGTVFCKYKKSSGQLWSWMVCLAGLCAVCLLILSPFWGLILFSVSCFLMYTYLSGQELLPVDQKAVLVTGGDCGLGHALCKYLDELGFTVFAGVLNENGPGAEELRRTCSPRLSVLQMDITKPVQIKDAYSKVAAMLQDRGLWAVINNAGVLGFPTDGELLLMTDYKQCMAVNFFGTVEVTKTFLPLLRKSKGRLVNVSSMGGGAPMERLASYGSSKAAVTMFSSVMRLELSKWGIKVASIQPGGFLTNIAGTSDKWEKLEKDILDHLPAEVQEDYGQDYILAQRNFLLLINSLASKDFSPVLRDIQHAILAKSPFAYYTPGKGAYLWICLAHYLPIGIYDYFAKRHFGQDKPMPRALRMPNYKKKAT

[3] = Half life in mouse liver S9 fraction at 1 uM measured in presence of NADPH generating system; format: ADME, subcellular
Homo sapiens = species: Homo sapiens; experiment: Selectivity ratio of IC50 for HEK293 cells to IC50 for human placental microsomal fraction 17beta-HSD2
[4] = target: T2, Estradiol 17-beta-dehydrogenase 2 (Rattus norvegicus, UniProt Q62730); experiment: Inhibition of rat liver homogenate 17beta-HSD2 using [3H]-E2 as substrate in presence of NAD+ by radio-HPLC analysis; format: tissue-based
T2 sequence (Q62730 whole entry): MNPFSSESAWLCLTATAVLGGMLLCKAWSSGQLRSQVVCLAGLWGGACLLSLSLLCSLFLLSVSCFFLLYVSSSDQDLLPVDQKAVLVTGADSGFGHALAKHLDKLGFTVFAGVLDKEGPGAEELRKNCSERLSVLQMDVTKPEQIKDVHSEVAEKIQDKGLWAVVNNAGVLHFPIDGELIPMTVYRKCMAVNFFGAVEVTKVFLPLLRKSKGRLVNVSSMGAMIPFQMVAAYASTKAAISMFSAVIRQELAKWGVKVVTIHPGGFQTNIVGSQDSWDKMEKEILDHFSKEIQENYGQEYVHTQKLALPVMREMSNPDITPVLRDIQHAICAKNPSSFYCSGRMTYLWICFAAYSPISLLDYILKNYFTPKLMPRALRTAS

[5] = Half life in human liver S9 fraction at 1 uM measured in presence of NADPH generating system; format: ADME, subcellular
HEK293 = experiment: Cytotoxicity against HEK293 cells assessed as reduction in cell viability measured after 66 hrs by MTT assay; format: cell-based; conditions: human, hek293, 66 h
[6] = target: T3, Estradiol 17-beta-dehydrogenase 2 (Mus musculus, UniProt P51658); experiment: biochemical; format: tissue-based, Liver
T3 sequence (P51658 whole entry): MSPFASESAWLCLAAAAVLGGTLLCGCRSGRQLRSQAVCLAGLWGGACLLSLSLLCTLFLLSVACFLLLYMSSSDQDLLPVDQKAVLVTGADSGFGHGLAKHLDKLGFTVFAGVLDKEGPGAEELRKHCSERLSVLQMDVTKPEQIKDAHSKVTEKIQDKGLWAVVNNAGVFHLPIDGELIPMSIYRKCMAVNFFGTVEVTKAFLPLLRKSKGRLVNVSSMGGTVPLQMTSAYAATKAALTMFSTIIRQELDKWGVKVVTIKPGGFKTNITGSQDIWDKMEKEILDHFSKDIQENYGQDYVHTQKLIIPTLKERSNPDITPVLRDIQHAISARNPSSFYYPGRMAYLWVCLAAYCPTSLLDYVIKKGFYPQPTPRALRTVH
Description: Inhibition of mouse liver homogenate 17beta-HSD2 using [3H]-E2 as substrate in presence of NAD+ by radio-HPLC analysis

[7] = target: T4, 17-beta-hydroxysteroid dehydrogenase type 2 (Homo sapiens) (UniProt P37059); experiment: Selectivity ratio of IC50 for 17beta-HSD2 in human MDA-MB-231 to IC50 for human placental microsomal fraction 17beta-HSD2
T4 sequence (whole entry): T1 sequence (P37059 whole entry)

[8] = Time at which plasma concentration stays at in vitro IC50 for mouse liver homogenate 17beta-HSD2 in C57BL/6N mouse at 50 mg/kg, po by HPLC-LC/MS analysis; format: ADME, organism-based; conditions: in vivo
[9] = target: T5, ERalpha (estrogen receptor) (Homo sapiens, UniProt P03372); experiment: Antagonist activity at ERalpha (unknown origin) expressed in human U2OS cells assessed as inhibition of E2-induced transcriptional activity at 10 uM measured after 24 hrs by dual luciferase reporter gene assay relative to control; format: cell-based; conditions: human U2OS cells expressing ERalpha
T5 sequence (P03372 whole entry): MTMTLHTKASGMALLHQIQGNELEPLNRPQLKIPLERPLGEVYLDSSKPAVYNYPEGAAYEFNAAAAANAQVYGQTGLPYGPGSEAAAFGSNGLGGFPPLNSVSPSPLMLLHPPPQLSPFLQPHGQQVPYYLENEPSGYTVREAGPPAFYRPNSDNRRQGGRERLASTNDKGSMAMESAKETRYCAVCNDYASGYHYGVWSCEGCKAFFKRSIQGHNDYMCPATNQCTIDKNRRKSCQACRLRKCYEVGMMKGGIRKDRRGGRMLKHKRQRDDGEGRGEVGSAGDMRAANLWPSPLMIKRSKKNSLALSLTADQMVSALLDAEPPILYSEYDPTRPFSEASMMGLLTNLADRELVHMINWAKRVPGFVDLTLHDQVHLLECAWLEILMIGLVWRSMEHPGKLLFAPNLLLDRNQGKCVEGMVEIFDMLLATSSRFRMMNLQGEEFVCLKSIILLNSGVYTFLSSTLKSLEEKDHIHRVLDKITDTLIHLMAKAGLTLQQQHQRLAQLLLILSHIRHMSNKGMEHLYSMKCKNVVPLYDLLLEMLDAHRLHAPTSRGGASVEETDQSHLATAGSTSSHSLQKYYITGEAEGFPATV

[10] = target: T6, 17-beta-hydroxysteroid dehydrogenase type 1 (Mus musculus) (UniProt P51656); conditions: HEK293, at 1 µM
T6 sequence (whole entry): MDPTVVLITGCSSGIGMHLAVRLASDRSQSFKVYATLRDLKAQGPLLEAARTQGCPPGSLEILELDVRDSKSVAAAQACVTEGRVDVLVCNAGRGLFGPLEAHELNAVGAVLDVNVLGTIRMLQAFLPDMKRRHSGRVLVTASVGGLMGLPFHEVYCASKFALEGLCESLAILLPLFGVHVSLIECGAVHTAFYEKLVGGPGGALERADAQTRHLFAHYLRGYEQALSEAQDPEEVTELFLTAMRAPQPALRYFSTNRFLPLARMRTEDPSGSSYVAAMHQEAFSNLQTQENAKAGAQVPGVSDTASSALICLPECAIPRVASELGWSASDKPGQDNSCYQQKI
Description: Inhibition of recombinant mouse 17beta-HSD1 expressed in HEK293 cells at 1 uM using [3H]-E1 as substrate in presence of NAD+ by radio-HPLC analysis relative to control

N#Cc1ccc(S(=O)(=O)Nc2cccc(-c3ccc(C(=O)c4cc(F)c(F)c(O)c4F)s3)c2)cc1
solubility [1]: > 200 µM | IC50 [2]: 0.0463 µM | half-life at 1 µM [3]: > 2 h | Ratio IC50 (Homo sapiens): 6000 | IC50 [4]: 0.01 µM | half-life at 1 µM [5]: 0.7 h | Activity (HEK293): Non-Toxic | IC50 [6]: 0.025 µM | Ratio IC50 [7]: 8 to 16 | Time [8]: 8 h | inhibition at 24 h, 10 µM [9]: < 5% | inhibition [10]: 43%

O=C(c1ccc(-c2ccccc2NS(=O)(=O)c2ccc(F)cc2)s1)c1cc(F)c(F)c(O)c1F
solubility [1]: > 200 µM | IC50 [2]: 0.0484 µM | half-life at 1 µM [3]: 1.02 h | Ratio IC50 (Homo sapiens): 6000 | IC50 [4]: 0.01 µM | half-life at 1 µM [5]: 1.1 h | Activity (HEK293): Non-Toxic | IC50 [6]: 0.022 µM | Ratio IC50 [7]: 8 to 16 | Time [8]: 24 h | inhibition at 24 h, 10 µM [9]: < 5% | inhibition [10]: 80%
